EP0565593B1, “REDUCING PESTICIDAL INTERACTIONS IN CROPS” (priority 1990, dated 1992)
Several values for one entry are separate records, joined by “and”; a condition that tells them apart may be missing. Equal values may be shown once. Read-outs that look alike come from different tables or passages of the source.

Experiments:
Shattercane (SHCA) = assay type: in vivo
Velvetleaf (VELE) = assay type: in vivo, Abutilon theophrasti
Giant foxtail (GIFT) = experiment: whole plant or invertebrate; assay type: in vivo; conditions: in vivo
Corn [1] = experiment: Greenhouse test Procedure VII: biocide and antidote in furrow, herbicide POE (Examples 39-42, 48-50, 56-58; Tables 38-41, 47-49, 55-57); assay type: in vivo; conditions: for % Inhibition Corn: C (COUNTER) + antidote in furrow
From the text: This procedure describes interaction among herbicide, biocide and antidote when the biocide and the antidote is applied to a soil furrow containing crop seed before emergence of the crop and the herbicide is applied after emergence of the crop and weeds. The soil and planting depth was described in Procedure IV. The containers for comparison, the biocide and antidote applications to soil furrows were described in Procedure VI. In this procedure, the seed beds of the first, second, third and fourth containers are covered by soil layers not treated with herbicide. The containers were then placed on a bench in a greenhouse and subirrigated as required for the duration of the test. The herbicide, dispersed or dissolved in water containing 0.25% v/v nonionic surfactant (X-77) was applied by a track sprayer (187 L/ha) to the emerged plants of the second, third and fourth containers about five days after planting. All treatments were run in duplicate. Plant response was observed according to Procedure IV. Variations in this procedure will be noted in the examples.
In this example, tests were conducted according to Procedure VII for the POE application of the herbicides following in-furrow application of COUNTER® 15G insecticide (BIOCIDE No. 1) and the antidote on the pre-planted test seeds. In this test, the herbicides were Nos. 1 (MON-12000), 10 (ALLY®) and #4 (HARMONY®) and the Antidote Nos. 1, 7, 12 and 33.
These in-furrow treatments comprised a 50-50 mix of blended granules of COUNTER with and without 5G granular antidotes at 7.4 + 7.4 mg/cm or 1.1 + 0.37 mg active ingredient (a.i.)/cm. The in-furrow initiation of the test was followed five (5) days later with POE application of the herbicides; observations were made eight (8) days later.
In another test, conducted simultaneously with that in Example 39, Herbicide Nos. 5 (chlorimuron ethyl, active ingredient in CLASSIC® herbicide), 7 (nicosulfuron, active ingredient in ACCENT® herbicide) and 15 (tribenuron methyl, active ingredient in EXPRESS® herbicide) were substituted as test herbicides.
In this example, using the same procedure as above, the following imidazolinone herbicides were used with the same insecticide/biocide and antidotes as above: Herb. No. 16 (imazaquin, a.i. in SCEPTER® herbicide; No. 19 (Code No. AC 222293, a.i. in ASSERT® herbicide); No. 6 (imazethapyr, a.i. in PURSUIT® herbicide and No. 18 (imazapyr, a.i. in ARSENAL® herbicide). Test results are shown in Table 40. Table 40
This example describes the testing of the above antidotes used in Examples 39-41 to safen negative synergy interactions between representative species of the class of herbicidal compounds identified as azolopyrimidine sulfonamides and COUNTER 15G. The same procedure used in the above examples was conducted in this test. In this test, the herbicides were formulated in 17% acetone and 83% water with 0.25% v/v X-77 surfactant.
In these tests (according to Procedure VII) the safeners in solution with acetone were applied in furrow to the soil, followed by COUNTER 15G granules at 227 g/305 m (8 oz./1000'). Applications were made in alternate rows in two separate 13.7 cm x 27.7 cm pans containing Dupo silt loam. Pans were seeded 1.3 cm deep, placed on benches in a greenhouse and subirrigated. BEACON was formulated in water with 0.25% v/v X-77 surfactant and applied by track sprayer at a rate of 187 L/Ha (20 gal/A). Weed species in this test were giant foxtail, shattercane and velvetleaf. The herbicide was applied five (5) days after PPI initiation and observation of test result (shown in Table 47) made eight (8) days later.
In Table 47 COUNTER 15G is abbreviated as "C" and the antidotes as "A" in the column headings which indicate the "C + A" ratios used in the tests. Control and COUNTER treatments are average of four (4) replications and COUNTER + Antidote treatments, average of 2 reps. […]

Corn [2] = system: Corn
[3] = Antidote 4.48 + Biocide No. 1 8.96 Kg/Ha PPI, Herb. No. 8 0.07, 5 DAP, before herbicide application
[4] = Antidote 4.48 + Biocide No. 1 8.96 Kg/Ha PPI, Herb. No. 8 0.07 POE, 13 DAP
[5] = Antidote 4.48 + Biocide No. 1 8.96 Kg/Ha PPI, Herbicide No. 7 0.28 POE, 13 days after planting
[6] = Table 14: Herbicide No. 7 (ACCENT) 0.84 Kg/Ha POE + Biocide No. 2 8.96 Kg/Ha PPI + antidote 4.48 Kg/Ha PPI, 13 days after planting, 8 days after herbicide
[7] = […], 13 days after planting, 8 days after herbicide
[8] = […], observed 10 days after herbicide application
[9] = Herb. […], 5 DAP, before herbicide application

CC1CN(C(=O)C(Cl)Cl)C(C)(C)O1 (stereo not shown) [compound 8]
% Inhibition 5 DAP SHCA (Shattercane (SHCA); [3]): 0% | % Inhibition 13 DAP SHCA (Shattercane (SHCA); [4]): 90% | % Inhibition SHCA (Shattercane (SHCA); [5]): 60% | % Inhibition SHCA (Shattercane (SHCA); [6]): 85% | % Inhibition SHCA (Shattercane (SHCA); [7]): 90% | % Inhibition SHCA (Shattercane (SHCA); [8]): 60% | % Inhibition 5 DAP SHCA (Shattercane (SHCA); in vivo): 30% | % Inhibition 13 DAP SHCA (Shattercane (SHCA); in vivo): 80% | % Inhibition 5 DAP VELE (Velvetleaf (VELE); [3]): 10% | % Inhibition 13 DAP VELE (Velvetleaf (VELE); [4]): 85% | % Inhibition VELE (Velvetleaf (VELE); [5]): 65% | % Inhibition 5 DAP VELE (Velvetleaf (VELE); [9]): 0% | % Inhibition VELE (Velvetleaf (VELE); [6]): 70% | % Inhibition VELE (Velvetleaf (VELE); [7]): 70% | % Inhibition VELE (Velvetleaf (VELE); [8]): 75% | % Inhibition 5 DAP VELE (Velvetleaf (VELE); in vivo): 0% | % Inhibition 13 DAP VELE (Velvetleaf (VELE); in vivo): 90% | % Inhibition GIFT (Giant foxtail (GIFT)): 45% and 50% and 85% and 65% and 70% and 90% and 60% | % Inhibition Corn (Corn [1]; C:A Ratio 20, ACCENT 0.56 Kg/Ha POE): 10% | % Inhibition Corn (Corn [1]; C:A Ratio 20, BEACON 0.28 Kg/Ha POE): 0% | % Inhibition Corn (Corn [1]; C:A Ratio 40, ACCENT 0.56 Kg/Ha POE): 15% | % Inhibition Corn (Corn [1]; C:A Ratio 40, BEACON 0.28 Kg/Ha POE): 0% | % Inhibition Corn (Corn [1]; C:A Ratio 80, ACCENT 0.56 Kg/Ha POE): 20% | % Inhibition Corn (Corn [1]; C:A Ratio 80, BEACON 0.28 Kg/Ha POE): 5% | % Inhibition Corn (Corn [1]; C:A Ratio 160, ACCENT 0.56 Kg/Ha POE): 40% | % Inhibition Corn (Corn [1]; C:A Ratio 160, BEACON 0.28 Kg/Ha POE): 15% | % Corn Inhibition C:A Ratios 5 (Corn [1]; Herbicide No. 8 0.28 Kg/Ha POE + COUNTER 15G 227 g/305 m + antidote in furrow, C:A ratio 5): 3% | % Corn Inhibition C:A Ratios 10 (Corn [1]; Herbicide No. 8 0.28 Kg/Ha POE + COUNTER 15G 227 g/305 m + antidote in furrow, C:A ratio 10): 5% | % Corn Inhibition C:A Ratios 20 (Corn [1]; Herbicide No. 8 0.28 Kg/Ha POE + COUNTER 15G 227 g/305 m + antidote in furrow, C:A ratio 20): 5% | % Corn Inhibition C:A Ratios 40 (Corn [1]; Herbicide No. 8 0.28 Kg/Ha POE + COUNTER 15G 227 g/305 m + antidote in furrow, C:A ratio 40): 3% | % Corn Inhibition C:A Ratios 80 (Corn [1]; Herbicide No. 8 0.28 Kg/Ha POE + COUNTER 15G 227 g/305 m + antidote in furrow, C:A ratio 80): 5% | % Corn Inhibition C:A Ratios 160 (Corn [1]; Herbicide No. 8 0.28 Kg/Ha POE + COUNTER 15G 227 g/305 m + antidote in furrow, C:A ratio 160): 10% | % Inhibition 5 DAP Corn (Corn [2]; [3]): 20% | % Inhibition 13 DAP Corn (Corn [2]; [4]): 35% | % Inhibition Corn (Corn [2]; [5]): 35% | % Inhibition 5 DAP Corn (Corn [2]; [9]): 0% | % Inhibition Corn (Corn [2]; [6]): 20% | % Inhibition Corn (Corn [2]; [7]): 20% | % Inhibition Corn (Corn [2]; [8]): 45% | % Inhibition 5 DAP Corn (Corn [2]; in vivo): 20% | % Inhibition 13 DAP Corn (Corn [2]; in vivo): 30% | % Inhibition Corn (Corn [2]; in vivo): 30% and 55%

C=CCN(CC=C)C(=O)C(Cl)Cl [compound 2]
% Inhibition 5 DAP SHCA (Shattercane (SHCA); [3]): 0% | % Inhibition 13 DAP SHCA (Shattercane (SHCA); [4]): 85% | % Inhibition SHCA (Shattercane (SHCA); [5]): 75% | % Inhibition 5 DAP SHCA (Shattercane (SHCA); [9]): 0% | % Inhibition SHCA (Shattercane (SHCA); [6]): 75% | % Inhibition SHCA (Shattercane (SHCA); [7]): 90% | % Inhibition SHCA (Shattercane (SHCA); [8]): 65% | % Inhibition 5 DAP SHCA (Shattercane (SHCA); in vivo): 20% | % Inhibition 13 DAP SHCA (Shattercane (SHCA); in vivo): 85% | % Inhibition 5 DAP VELE (Velvetleaf (VELE); [3]): 0% | % Inhibition 13 DAP VELE (Velvetleaf (VELE); [4]): 95% | % Inhibition VELE (Velvetleaf (VELE); [5]): 65% | % Inhibition 5 DAP VELE (Velvetleaf (VELE); [9]): 0% | % Inhibition VELE (Velvetleaf (VELE); [6]): 70% | % Inhibition VELE (Velvetleaf (VELE); [7]): 60% | % Inhibition VELE (Velvetleaf (VELE); [8]): 80% | % Inhibition 5 DAP VELE (Velvetleaf (VELE); in vivo): 0% | % Inhibition 13 DAP VELE (Velvetleaf (VELE); in vivo): 85% | % Inhibition GIFT (Giant foxtail (GIFT)): 50% and 55% and 80% and 60% and 70% and 90% | % Inhibition 5 DAP Corn (Corn [2]; [3]): 10% | % Inhibition 13 DAP Corn (Corn [2]; [4]): 50% | % Inhibition Corn (Corn [2]; [5]): 30% | % Inhibition 5 DAP Corn (Corn [2]; [9]): 0% | % Inhibition Corn (Corn [2]; [6]): 20% | % Inhibition Corn (Corn [2]; [7]): 15% | % Inhibition Corn (Corn [2]; [8]): 60% | % Inhibition 5 DAP Corn (Corn [2]; in vivo): 20% | % Inhibition 13 DAP Corn (Corn [2]; in vivo): 45%
